Test results: patent US10357537B2, “Cyclotides as immunosuppressive agents” (priority 2011, dated 2019)
Bridge positions count the residues as written; N and C are the ends. Peptide text beside a SMILES is read from it.

Key:
[1] = test system: activated human primary PBMC; test: Anti-proliferative CFSE cell division assay on anti-CD3/CD28-activated PBMC; conditions: CFSE, flow cytometry; extract 50-100 μg/mL, cyclotides 1.8-14 μM, melittin 0.05-1.6 μM
Summary of the method: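 Healthy-donor PBMC were CFSE-labelled (5 μM, 10 min, 37° C.), activated with anti-CD3/CD28 and cultured in RPMI 1640 with 10% FCS at 37° C. with the cyclotide mutants/variants. Proliferation was read as cell division by flow-cytometric CFSE histogram analysis.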

[2] = test system: IL-2 mRNA in PHA-L-activated cells; test: IL-2 gene expression, real-time PCR; format: cell-based, human; conditions: 4 hours, vs control
Procedure: C. IL-2 gene expression analysis using RT-PCR. […] RT-PCR was carried out using specific primers for indicated gene. The data were normalized to the Ct value of the internal housekeeping gene 18s rRNA and the relative mRNA level in the untreated stimulated group was used as calibrator. Data were expressed as mean+SD of three independent experiments.
Total RNA was extracted from controls or treated cells (2×10^6) frozen at −80° C. RNA-purification was performed according to the manufacturer's instructions for the RNeasy mini and Rnase-Free Dnase Set digestion kits (Qiagen, Hilden, Germany). The quantity and purity of extracted RNA was measured by spectrophotometry (Nanodrop, Peqlab, Erlangen, Germany) and purified RNA was reverse transcribed using the RT^2 First Stand Kit (Qiagen, Hilden, Germany).
RT-PCR reactions were carried out on a BioRad MyiQ (BioRad, Munich, Germany) in a final volume of 25 μL using RT^2 qPCR Primer Assay (for IL-2) and SYBR® Green qPCR Mastermix (both from Qiagen, Hilden, Germany). […] Results were expressed as relative gene expression of IL-2 and were determined by comparative Ct method. […]
To determine whether cyclotides have an impact at the gene expression level of the, il-2 gene expression (as control we used 18s rRNA) in PBMC cells was investigated by quantitative real-time PCR (FIG. 12C).

[3] = test system: EAE-induced C57BL/6J mice; test: EAE in C57BL/6J mice treated with T20K, clinical score; format: in vivo, mouse
Procedure: FIG. 19. Effect on clinical EAE score. After induction of EAE, mice treated with T20K and naïve mice were scored every second day, starting at day 10.
Mice (n=10/group) were treated on day (−7), 0, 7 with 200 μg/100 μL/mouse T20K solubilized in sterile PBS intraperitoneally (i.p.), as indicated in the figure. On day 0 they were immunized subcutaneously with myelin oligodendrocyte glycoprotein (MOG35-55, 1 mg/mL) and complete Freud's adjuvant (CFA, 10 mg/mL) mixed at equal parts. Therefore 70 μL were injected into the left and right flank. Additionally mice received 100 μL pertussis toxin (2 μg/mL) i.p. on day 0 and again on day 2. Beginning at day 10 mice were scored every second day. Weight was also measured at day (−7), 0, 7 and on the same day during scoring.

NFATc1 in human T-cells = test: Western blot for NFATc1; format: cell-based; conditions: CsA 5 μg/mL, T20K 4 μM; compared to V10K, PHA-L, PMA/Ionomycin
Procedure: (§1) FIG. 23. Effect of cyclotides on protein expression of NFAT1c. […] But instead of stimulating with PHA-L and PMA/ionomycin, one part of the cells was stimulated with PHA-L (10 μg/mL) and the other with PMA (50 ng/mL)/ionomycin (500 ng/mL) over night. […] Splenic T-cells isolated from naïve mouse group were stimulated as described above.
(§2) Human T-cells provided by CCRI from A. Dohnal, PhD were stimulated according to the protocol for IL2 release described above. Stimulated cells were resuspended in TBS and mixed at equal parts with sample buffer and heated for five minutes at 95° C. A sodium dodecyl sulfate polyacrylamide gel was prepared to separate the proteins achieved from the lysed T-cells. After electrophoresis proteins were transferred from the gel to a membrane. After blocking the membrane with BSA 3% in TBST over night at 4° C., the first antibody mouse anti-NFATc1 was incubated for 2 hours at room temperature. After five times washing with TBST 0.1% Tween, the membrane was incubated with the second antibody anit-mouse IgG HRP for one hour at room temperature. The membrane was dried and treated with West Pico or West Femto Super Signal Solution according to the manufactures protocol to evaluate the chemo-luminescence signal.

[4] = test system: NFATc1 in splenic T-cells of naive mouse group; test: Western blot for NFATc1; format: cell-based; conditions: compared to V10K and MOG
Procedure: as §1, §2

Compound: CC(C)C[C@@H]1NC(=O)CNC(=O)[C@H](CC(N)=O)NC(=O)[C@H](CCCNC(=N)N)NC(=O)[C@H]([C@@H](C)O)NC(=O)[C@@H]2CSSC[C@@H]3NC(=O)[C@H]([C@@H](C)O)NC(=O)CNC(=O)CNC(=O)[C@H](C(C)C)NC(=O)[C@@H]4CSSC[C@H](NC(=O)[C@H](CCCCN)NC(=O)[C@H](CSSC[C@H](NC(=O)[C@H](C(C)C)NC(=O)[C@@H]5CCCN5C1=O)C(=O)NCC(=O)N[C@@H](CCC(=O)O)C(=O)N[C@@H]([C@@H](C)O)C(=O)N4)NC(=O)CNC(=O)[C@@H]1CCCN1C(=O)[C@H]([C@@H](C)O)NC(=O)[C@H](CC(N)=O)NC3=O)C(=O)N[C@@H](CO)C(=O)N[C@@H](Cc1c[nH]c3ccccc13)C(=O)N1CCC[C@H]1C(=O)N[C@@H](C(C)C)C(=O)N2 [Kalata T20K] (cyclo(CGETCVGGTCNTPGCKCSWPVCTRNGLPV); disulfide 1-15, 5-17, 10-22 (inferred); ring closure inferred)
- cell division / proliferation of activated PBMC (in words) [1]: show anti-proliferative capacity
- level of IL-2 mRNA [2]: clearly decreases the level of IL-2 mRNA
- clinical EAE score / symptoms ([3]; T20K 200 μg/100 μL/mouse i.p. on day -7, 0 or 7, vs naive group): delayed and minor symptoms of EAE
- prophylactic effect on clinical EAE score ([3]; mice treated seven days before EAE induction, Dunnett's test): demonstrate significantly the prophylactic effect
- NFATc1 signal in human T-cells (NFATc1 in human T-cells): reduced signal of NFATc1
- NFATc1 signal in mouse splenic T-cells [4]: reduced NFATc1 signal
